pIC50: −log10 of the molar value.
What was measured:
Caco2 transwell assay = assay type: in vitro ADME, human; details: human, Caco-2, no inhibitor; 10 μM cyanoquinoline or 50 μM vinblastine, 120 min; read-out: efflux ratio (Papp B-A / Papp A-B)
Experimental: (§1) The caco2 transwell assay was performed to assess permeability. Cells were seeded at a density of 60,000 cells per well in 24 well transwell plates (Millipore, Billerica, Massachutsetts, USA), and maintained in DMEM supplemented with […] glucose (20% FBS, 1% penicillin/streptomycin, 1% glutamine) for 21 days at 37°C in 5% CO2. After 21 days the cells differentiate into enterocytes and express all three MDR proteins, ABCB1 and ABCG2 at the apical side and ABCC1 on the basal side. On day 21, cells were washed three times with Hank's Balanced Salt Solution (HBSS) (Fisher scientific, Loughborough, UK) and the trans-epithelial electric resistance (TERR) was measured using an Epithelial Voltohmmeter (EVOM) (World Precision Instruments, Sarasota, USA); only transwells with TERR of 400 Ω/cm^2 or above were used for the experiment. Cells were treated either at the apical (n = 3) or basal (n = 3) side of the transwell by addition of 10 μM of cyanoquinoline compound or 50 μM vinblastine prepared in a volume of 400 μL HBSS (compound added to apical well) or 800 μL of HBSS (added to basal well). When transport inhibitors FTC (10 μM) or zosuquidar (0.3 μM) were used, they were added to both the apical and basal wells 1 h prior to drug treatment. After 1 h pre-treatment the medium was removed and cells were treated with the compounds prepared in HBSS containing FTC or Zosuquidar.
(§2) Plates were incubated in shaker incubator at 37°C and 60 rpm for 120 min. After incubation, 200 μL aliquots from the apical and the basal wells were collected and analysed using high performance liquid chromatography (HPLC). Samples were run on a Millipore Waters HPLC system which included a 717 plus autosampler and 2487 dual wavelength absorbance detector system. The stationary phase comprised of a Phenomenex Luna C18 reverse phase column (150 X 4.6 mm; 5 μm particle size). The mobile phase comprised water (0.1% TFA) and acetonitrile (0.1% TFA) (80:20 v/v) at a flow rate of 1 mL/min for all compounds except vinblastine. For vinblastine, the stationary phase comprised a Supelcosil LC-ABZ reverse phase column (5 × 4.6 mm; 5 μm particle size). The mobile phase comprised water (0.1% formic acid) and methanol (90:10 to 10:90 v/v gradient over 20 min). Peak areas corresponding to the compounds of interest were recorded. Using standard curves the areas under the curve were converted into concentrations of compound. The permeability coefficient (Papp) was calculated using the following equation [30]: Papp = (dQ/dt)/A C0, where A is the surface area of the transwell membrane in cm^2 (= 0.33 cm^2), C0 is the drug concentration in the donor chamber at time t = 0 and dQ/dt is the rate of transfer of the compound to the receiver chamber, determined from the slope of the graph concentration (dQ) versus time (dt). Papp values corresponding to absorption and secretion were assessed and used to calculate efflux ratio. Efflux ratio =(Papp B−A)/(Papp A−B) Where Papp A-B = Papp absorption and Papp B-A = Papp secretion.
(§3) The integrity of the caco2 cell membrane was assessed for each well following the experiment by addition of a 100 μM solution of […] (Sigma) in HBSS to the apical side of the plate. The plates were placed in the shaker incubator for 1 h at 37°C and 60 rpm. Samples from the basal wells were transferred into a 96 well plate and the levels of […] were assessed by measuring with an excitation of 450 nm and an emission of 540 nm using the PerkinElmer Wallac 1420 counter.

caco2 cells = test: Caco2 transwell assay; assay type: in vitro ADME, human; details: pre-treatment with zosuquidar
Experimental: as §1, §2, §3

[1] = target: T1, EGFR Del E746-A750 (PC9 cells) (Homo sapiens, UniProt P00533, DEL746-750); test: Inhibition of EGFR autophosphorylation (p-EGFR Y1068, western blot) in PC9 cells; assay type: cell-based; details: 3 h incubation, densitometry of western blots
T1 construct: endogenous in cells; host or cells: PC9 (Dr Olivier Pardo, Imperial College London)
T1 sequence (P00533 with tags, fused parts or gaps DEL746-750): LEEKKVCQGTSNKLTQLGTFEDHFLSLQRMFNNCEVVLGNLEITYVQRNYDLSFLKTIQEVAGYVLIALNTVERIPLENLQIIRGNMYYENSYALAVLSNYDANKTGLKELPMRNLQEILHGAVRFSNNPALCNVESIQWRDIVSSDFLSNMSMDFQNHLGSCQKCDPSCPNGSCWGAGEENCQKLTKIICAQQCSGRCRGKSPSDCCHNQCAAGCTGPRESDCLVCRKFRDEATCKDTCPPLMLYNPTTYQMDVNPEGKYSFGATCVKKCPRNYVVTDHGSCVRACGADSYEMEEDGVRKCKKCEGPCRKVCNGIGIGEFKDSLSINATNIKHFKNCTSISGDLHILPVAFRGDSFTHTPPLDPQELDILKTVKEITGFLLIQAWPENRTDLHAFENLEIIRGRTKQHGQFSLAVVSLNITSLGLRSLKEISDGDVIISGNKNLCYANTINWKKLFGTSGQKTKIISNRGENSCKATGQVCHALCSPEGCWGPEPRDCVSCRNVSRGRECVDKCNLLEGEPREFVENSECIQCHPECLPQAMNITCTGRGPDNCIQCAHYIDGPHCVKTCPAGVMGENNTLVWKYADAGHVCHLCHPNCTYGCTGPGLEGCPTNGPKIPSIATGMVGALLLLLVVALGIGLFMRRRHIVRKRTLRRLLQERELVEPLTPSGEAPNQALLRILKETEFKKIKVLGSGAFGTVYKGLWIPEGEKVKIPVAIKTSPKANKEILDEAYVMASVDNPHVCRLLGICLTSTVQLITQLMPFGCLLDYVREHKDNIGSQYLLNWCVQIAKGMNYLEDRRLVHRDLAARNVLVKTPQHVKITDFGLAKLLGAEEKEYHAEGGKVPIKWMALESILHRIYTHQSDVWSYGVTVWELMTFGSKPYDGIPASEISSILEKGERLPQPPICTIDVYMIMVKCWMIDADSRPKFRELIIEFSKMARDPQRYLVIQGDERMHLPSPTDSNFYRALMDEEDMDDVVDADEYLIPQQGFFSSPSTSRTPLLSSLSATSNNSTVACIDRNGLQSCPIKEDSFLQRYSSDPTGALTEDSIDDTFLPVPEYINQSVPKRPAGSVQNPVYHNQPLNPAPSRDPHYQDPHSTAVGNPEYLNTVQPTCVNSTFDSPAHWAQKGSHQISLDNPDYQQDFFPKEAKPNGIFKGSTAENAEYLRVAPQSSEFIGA
Experimental: (§4) Affinity of the cyanoquinolines for EGFR was established by measuring their inhibition of EGFR autophosphorylation via western blot. Cells were seeded in 6 well plates and following 24 h of growth, were subject to overnight serum starvation. The cells were then treated with increasing concentrations of cyanoquinolines prepared in serum free growth media from a DMSO stock (final DMSO concentration < 1%) for 3 h at 37°C, and stimulated for receptor autophosphorylation by addition of 100 ng/mL of EGF during the last 15 minutes of drug incubation. After 3 h the cells were placed on ice, media removed and then the cells were washed two times with ice cold phosphate buffered saline (PBS). Lysates were analysed by western blot to measure changes to p-EGFR Y1068.
(§5) Cells were collected into a microcentrifuge tube and sonicated for 30 seconds on ice. Cellular protein levels were assessed using a bicinchoninic acid (BCA) protein assay kit according to the manufacturer’s instructions (Thermo scientific). […] Samples were transferred to polyvinylidene difluoride (PVDF) membrane using Trans-Blot Turbo system BIO-RAD (Hercules, California, USA). […] The membranes were then incubated overnight with primary antibody prepared in 1% milk or 1% BSA in TBST. […] Membranes were washed a further three times for 10 minutes with TBST. […]

[2] = target: T2, EGFR Del E746-A750/T790M (PC9ER cells) (Homo sapiens, UniProt P00533, DEL746-750/T790M); test: Inhibition of EGFR autophosphorylation (p-EGFR Y1068, western blot) in PC9ER cells; assay type: cell-based
T2 construct: endogenous in cells; host or cells: PC9ER (Dr Olivier Pardo, Imperial College London)
T2 sequence (P00533 with tags, fused parts or gaps DEL746-750/T790M): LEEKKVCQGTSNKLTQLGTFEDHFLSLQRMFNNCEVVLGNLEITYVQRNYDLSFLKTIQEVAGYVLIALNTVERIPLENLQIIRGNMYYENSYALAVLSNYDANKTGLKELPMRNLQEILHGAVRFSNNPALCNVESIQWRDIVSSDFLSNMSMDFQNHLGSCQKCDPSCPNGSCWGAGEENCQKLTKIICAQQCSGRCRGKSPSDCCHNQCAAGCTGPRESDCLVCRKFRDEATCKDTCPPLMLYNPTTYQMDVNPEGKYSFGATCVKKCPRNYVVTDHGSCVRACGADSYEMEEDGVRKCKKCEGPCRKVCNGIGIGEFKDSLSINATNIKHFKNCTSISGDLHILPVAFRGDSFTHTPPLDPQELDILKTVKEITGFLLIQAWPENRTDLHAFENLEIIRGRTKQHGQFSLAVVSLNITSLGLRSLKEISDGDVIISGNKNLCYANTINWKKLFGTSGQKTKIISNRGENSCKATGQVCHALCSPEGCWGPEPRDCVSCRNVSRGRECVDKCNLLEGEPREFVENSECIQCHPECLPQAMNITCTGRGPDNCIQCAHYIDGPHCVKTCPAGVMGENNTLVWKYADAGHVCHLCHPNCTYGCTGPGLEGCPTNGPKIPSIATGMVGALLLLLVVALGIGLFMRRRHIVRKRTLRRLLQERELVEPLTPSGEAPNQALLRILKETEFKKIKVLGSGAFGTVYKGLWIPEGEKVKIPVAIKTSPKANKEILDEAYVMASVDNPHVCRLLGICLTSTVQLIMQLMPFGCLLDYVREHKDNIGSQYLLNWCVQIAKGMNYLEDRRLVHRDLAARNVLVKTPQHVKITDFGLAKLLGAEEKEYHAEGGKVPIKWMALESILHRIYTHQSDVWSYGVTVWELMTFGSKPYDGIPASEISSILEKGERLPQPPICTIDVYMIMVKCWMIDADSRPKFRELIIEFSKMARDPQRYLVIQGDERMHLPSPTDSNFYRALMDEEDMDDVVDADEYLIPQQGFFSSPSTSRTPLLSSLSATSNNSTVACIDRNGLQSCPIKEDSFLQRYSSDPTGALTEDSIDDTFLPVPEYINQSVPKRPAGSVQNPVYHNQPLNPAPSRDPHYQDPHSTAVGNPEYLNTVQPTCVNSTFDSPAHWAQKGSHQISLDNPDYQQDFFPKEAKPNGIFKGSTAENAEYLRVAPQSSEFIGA
Experimental: as §4
Cells were collected into a microcentrifuge tube and sonicated for 30 seconds on ice. Cellular protein levels were assessed using a bicinchoninic acid (BCA) protein assay kit according to the manufacturer’s instructions (Thermo scientific). […] Samples were transferred to polyvinylidene difluoride (PVDF) membrane using Trans-Blot Turbo system BIO-RAD (Hercules, California, USA). […] The membranes were then incubated overnight with primary antibody prepared in 1% milk or 1% BSA in TBST. […] Membranes were washed a further three times for 10 minutes with TBST. Blots were visualised using chemoluminescence (ECL, GE Healthcare, Little Chalfont, UK) and developed on Amersham Hyperfilm ECL (GE Healthcare). β-Actin was used as a loading control.

EGFR L858R (H3255 cells) = target: T3, EGFR L858R (H3255 cells) (Homo sapiens, UniProt P00533, L858R); test: Inhibition of EGFR autophosphorylation (p-EGFR Y1068, western blot) in H3255 cells; assay type: cell-based; details: 3 h incubation, densitometry of western blots
T3 construct: host or cells: H3255
T3 sequence (P00533 25-1210 L858R): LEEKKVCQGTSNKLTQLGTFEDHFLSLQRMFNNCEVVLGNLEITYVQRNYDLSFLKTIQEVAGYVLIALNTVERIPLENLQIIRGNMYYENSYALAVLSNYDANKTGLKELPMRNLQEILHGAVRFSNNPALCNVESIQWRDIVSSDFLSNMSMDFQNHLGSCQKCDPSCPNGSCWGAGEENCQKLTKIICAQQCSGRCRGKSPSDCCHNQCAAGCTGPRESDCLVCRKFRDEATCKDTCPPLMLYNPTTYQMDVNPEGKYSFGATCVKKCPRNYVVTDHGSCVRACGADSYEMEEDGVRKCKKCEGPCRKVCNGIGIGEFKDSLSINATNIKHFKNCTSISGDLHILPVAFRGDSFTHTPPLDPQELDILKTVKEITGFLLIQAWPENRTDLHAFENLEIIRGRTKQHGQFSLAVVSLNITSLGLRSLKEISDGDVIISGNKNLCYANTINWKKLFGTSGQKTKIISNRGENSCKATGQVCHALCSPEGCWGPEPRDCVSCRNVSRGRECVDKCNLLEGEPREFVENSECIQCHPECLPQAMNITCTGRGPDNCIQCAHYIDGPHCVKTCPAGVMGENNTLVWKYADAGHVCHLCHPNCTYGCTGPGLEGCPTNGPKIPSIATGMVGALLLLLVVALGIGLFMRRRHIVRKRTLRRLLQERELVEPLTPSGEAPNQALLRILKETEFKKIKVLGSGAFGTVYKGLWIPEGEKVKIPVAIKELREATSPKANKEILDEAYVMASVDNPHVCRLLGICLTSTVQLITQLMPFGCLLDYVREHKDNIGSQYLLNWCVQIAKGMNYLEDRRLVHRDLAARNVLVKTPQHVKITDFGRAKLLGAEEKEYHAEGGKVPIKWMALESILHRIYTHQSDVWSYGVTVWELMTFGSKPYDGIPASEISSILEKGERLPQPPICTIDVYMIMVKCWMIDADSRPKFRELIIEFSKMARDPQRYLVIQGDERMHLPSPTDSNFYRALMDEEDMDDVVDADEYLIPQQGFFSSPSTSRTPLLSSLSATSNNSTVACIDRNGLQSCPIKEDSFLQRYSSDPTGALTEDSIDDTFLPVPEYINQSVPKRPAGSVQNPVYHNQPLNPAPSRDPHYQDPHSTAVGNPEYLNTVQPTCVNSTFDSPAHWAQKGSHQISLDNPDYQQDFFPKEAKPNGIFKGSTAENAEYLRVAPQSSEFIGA
Experimental: as §4, §5

[3] = target: T4, EGFR L858R/T790M (H1975 cells) (Homo sapiens, UniProt P00533, L858R/T790M); test: Inhibition of EGFR autophosphorylation (p-EGFR Y1068, western blot) in H1975 cells; assay type: cell-based; details: 3 h incubation, densitometry of western blots
T4 construct: host or cells: H1975
T4 sequence (P00533 25-1210 T790M/L858R): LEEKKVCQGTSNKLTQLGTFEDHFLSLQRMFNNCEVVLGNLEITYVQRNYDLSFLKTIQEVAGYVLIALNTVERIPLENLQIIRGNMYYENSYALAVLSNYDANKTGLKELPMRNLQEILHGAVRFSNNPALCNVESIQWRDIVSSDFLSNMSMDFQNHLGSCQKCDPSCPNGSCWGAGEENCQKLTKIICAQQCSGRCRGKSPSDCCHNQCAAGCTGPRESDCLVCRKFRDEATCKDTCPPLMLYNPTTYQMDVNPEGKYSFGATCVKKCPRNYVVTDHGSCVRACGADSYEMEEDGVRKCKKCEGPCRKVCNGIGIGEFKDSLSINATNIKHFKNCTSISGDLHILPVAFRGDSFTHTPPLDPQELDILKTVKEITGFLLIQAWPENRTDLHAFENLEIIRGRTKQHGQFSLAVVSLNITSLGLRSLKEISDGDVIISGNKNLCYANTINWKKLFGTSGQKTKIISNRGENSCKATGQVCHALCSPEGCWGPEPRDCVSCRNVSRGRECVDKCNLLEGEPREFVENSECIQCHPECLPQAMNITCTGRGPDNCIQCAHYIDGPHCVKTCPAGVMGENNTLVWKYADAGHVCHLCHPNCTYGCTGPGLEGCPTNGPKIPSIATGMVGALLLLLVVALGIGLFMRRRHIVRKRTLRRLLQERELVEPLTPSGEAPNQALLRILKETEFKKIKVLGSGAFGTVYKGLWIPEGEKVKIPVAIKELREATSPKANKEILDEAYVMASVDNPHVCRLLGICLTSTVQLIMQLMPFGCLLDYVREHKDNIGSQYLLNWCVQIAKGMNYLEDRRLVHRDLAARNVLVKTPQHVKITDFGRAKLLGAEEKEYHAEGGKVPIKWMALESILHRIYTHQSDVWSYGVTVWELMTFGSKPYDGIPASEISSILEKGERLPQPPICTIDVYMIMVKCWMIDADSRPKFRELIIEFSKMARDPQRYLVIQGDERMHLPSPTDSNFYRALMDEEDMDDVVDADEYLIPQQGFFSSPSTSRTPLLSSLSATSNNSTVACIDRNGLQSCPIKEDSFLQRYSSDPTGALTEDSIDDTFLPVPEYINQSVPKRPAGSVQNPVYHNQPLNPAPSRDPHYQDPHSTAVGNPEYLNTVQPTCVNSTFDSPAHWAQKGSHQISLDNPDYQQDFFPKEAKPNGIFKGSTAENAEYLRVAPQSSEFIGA
Experimental: as §4, §5

EGFR = tested on: EGFR; design: method as in PMID 20797871, PMID 24307532; details: cell-free; read-out: IC50 for inhibition of cell-free EGFR phosphorylation; cited from earlier work
PC9 and PC9ER cells = test: Cell uptake assay in PC9 versus PC9ER cells; assay type: cell-based; details: 1 h incubation
Experimental: (§6) [^18F]FED6 and [^18F]FED20 were synthesised as previously reported. To increase specific radioactivity of [^18F]FED20, we modified the synthesis by decreasing the amount of alkyne precursor from 1 mg down to 0.5 mg. While this had the desired effect of increasing the specific activity from 7.3 GBq/μmol up to 52 GBq/μmol, the conversion of the alkyne to the triazole product dropped from > 95% down to 45%. Cells were seeded in 6 well plates and [^18F]FED6 (0.22 MBq) or [^18F]FED20 (0.55 MBq or 0.74 MBq) added to each well and incubated at 37°C for 1 h. Media were then removed and cells were washed twice with PBS. The cells were trypsinised and centrifuged for 3 minutes at 2000 rpm to obtain a pellet. The cell pellet was washed once with PBS and resuspended in 200 μL of RIPA buffer. Cell lysates were transferred to gamma counting tubes and the radioactivity in the pellet was measured on a Packard Cobra II gamma counter, (Perkin-Elmer, Waltham, Massachusetts, USA). Protein concentrations of samples were evaluated using Pierce® BCA Protein Assay Kit (Thermo Scientific, Waltham, Massachusetts, USA). Data were expressed as background- and decay-corrected counts per minute (CCPMA) per μg of cellular protein.

cells = test: Cell uptake assay, overall magnitude of uptake; assay type: cell-based
Experimental: as §6

efflux ratio at 120 min (Caco2 transwell assay)	efflux (permeability) ratio after pre-treatment with zosuquidar (caco2 cells)	pIC50 [1]	pIC50 ([2]; 3 h incubation, densitometry of western blots)	fold higher IC50 (p-EGFR) in PC9ER compared to PC9 ([2]; PC9ER versus isogenic PC9) [fold]	pIC50 (EGFR L858R (H3255 cells))	pIC50 [3]	SMILES	pIC50 (EGFR)	fold higher uptake in PC9 compared to PC9ER cells (PC9 and PC9ER cells) [fold]	fold lower magnitude of uptake than [^18F]FED6 (cells) [fold]
1.3	did not have any effect	6.52	6.15	2	6.52	5.15	CCOc1cc2ncc(C#N)c(Nc3ccc(F)c(Cl)c3)c2cc1NC(=O)/C=C/CNCc1cn([C@@H]2OC(CO)[C@@H](O)C(O)C2F)nn1 (stereo partly drawn) [FED20, (2E)-N-{4-[(3-chloro-4-fluorophenyl)amino]-3-cyano-7-ethoxyquinolin-6-yl}-4-[({1-[(2R,5S)-3-fluoro-4,5-dihydroxy-6-(hydroxymethyl)oxan-2-yl]-1H-1,2,3-triazol-4-yl}methyl)amino]but-2-enamide]	8.35	–	–
–	–	–	–	–	–	–	CCOc1cc2ncc(C#N)c(Nc3ccc(F)c(Cl)c3)c2cc1NC(=O)/C=C/CNCc1cn([C@@H]2OC(CO)[C@@H](O)C(O)C2[18F])nn1 (stereo partly drawn) [[^18F]FED20, [^18F](2E)-N-{4-[(3-chloro-4-fluorophenyl)amino]-3-cyano-7-ethoxyquinolin-6-yl}-4-[({1-[(2R,5S)-3-fluoro-4,5-dihydroxy-6-(hydroxymethyl)oxan-2-yl]-1H-1,2,3-triazol-4-yl}methyl)amino]but-2-enamide]	–	2	> 5

Reference: article PMC4995014, “Identification of ABC Transporter Interaction of a Novel Cyanoquinoline Radiotracer and Implications for Tumour Imaging by Positron Emission Tomography” (PLoS ONE, 2016)
